Source: patent US6008226A, “Substituted N-arylmethyl and heterocylylmethyl-1H-pyrazolo[3,4-b]quinolin-4-amines and compositions and methods of use thereof” (Sanofi-Synthelabo, priority 1998, dated 1999)
Counter-ions that a name gives are not always drawn.

Columns and labels:
cGMP-PDE V [1] = target: T1, cGMP-PDE V (Homo sapiens, UniProt O76074); experiment: c-GMP-PDE V inhibitory activity (cyclic nucleotide hydrolysis by isolated PDE isozymes); assay type: biochemical, various animal species and man; details: for inhibition at 10 µM: read-out: Percent Inhibition cGMP-PDE V
T1 construct: The cGMP-PDE and other PDE isozymes were isolated from cardiovascular tissues (heart and aorta); from tissue; host or cells: cardiovascular tissues (heart and aorta) of various animal species and man
Description: The cGMP-PDE and other PDE isozymes were isolated from cardiovascular tissues (heart and aorta) of various animal species and man by anion-exchange and affinity chromatography as described by Silver et al., Sec. Messeng. Phos. 13: 13-25, 1991; PDE activity, in the presence and absence of test compounds was determined essentially as described by Thompson et al., Adv. Cyclic Nucleotide Res. 10: 69-92. To determine the potency and selectivity of compounds as PDE inhibitors, compounds are screened for their effect on cyclic nucleotide hydrolysis at 10 μM. If ≥50% inhibition of PDE activity is observed, an IC50 value (concentration of compound causing 50% reduction in PDE activity) and corresponding 95% confidence intervals are generated. The IC50 values are calculated from concentration-response curves as described by Tallarida and Murray, Manual of Pharmacologic Calculations with Computer Programs, Procedure 8, Graded Dose-response, pp. 14-19, Springer-Verlag, New York, 1981.

[2] = test system: Spontaneously hypertensive rats (SHR); experiment: antihypertensive activity in conscious spontaneously hypertensive rats (SHR), iv; assay type: in vivo, rat; details: for ED25: Rattus norvegicus, 5 min, iv, 5 minutes after each cumulative dose, read-out: SHR iv ED25, mean arterial pressure
Description: After a 2 day recovery from surgery, three baseline blood pressure measurements were made at 5 min intervals in conscious SHR. Compounds to be tested or vehicle were then administered intravenously in a dose-dependent manner (0.3-10 mg base/kg) while arterial pressure was recorded continuously on a polygraph. The mean arterial pressure response was measured 5 minutes after the administration of each dose of the test compound and the next dose given in a cumulative dose fashion. The response to each dose of the test compound was calculated as the difference from the mean of the three baseline measurements.

cGMP-PDE V [3] = target: T1, cGMP-PDE V; experiment: c-GMP-PDE V inhibitory activity (cyclic nucleotide hydrolysis by isolated PDE isozymes); assay type: biochemical, various animal species and man; details: read-out: Percent Inhibition cGMP-PDE V
interferon = details: Crenshaw et al.; cited from earlier work
[4] = test system: Spontaneously hypertensive rats; experiment: reversing or reducing nitrate-induced tolerance in spontaneously hypertensive rats; assay type: in vivo, rat
Description: Spontaneously hypertensive rats (17-25 weeks of age) are made nitroglycerin tolerant by repeated administration of high doses of nitroglycerin (100 mg/kg, s.c., 3 times/day for 3 consecutive days). To confirm tolerance challenge doses of nitroglycerin are administered intravenously at doses ranging from 1-300 μg/kg and the maximum change in mean arterial pressure (MAP) for each dose is recorded. Groups of tolerant rats are then pretreated with the compounds of the invention (tolerant pretreated group) or with vehicle (0.05 N NaOH) (tolerant vehicle pretreated group) intravenously 5-10 minutes prior to administration of challenge doses of nitroglycerin. The administration of challenge doses of nitroglycerin to non-tolerant rats (the non-tolerant group) causes a dose-dependent decrease in MAP of between 10 to 40 mm Hg. […] It is expected that the administration of challenge doses of nitroglycerin to tolerant rats which have been pretreated with the compounds of the invention (tolerant pretreated group) should result in varying degrees of restoration of the hypotensive response. The area under the dose-MAP curve is then calculated for the non-tolerant group and for the tolerant vehicle pretreated group and the tolerant pretreated group. The percent reversal of nitrate-inducedtolerance is then calculated as follows:
Percent Reversal=(AUCtol-pretreated -AUCtol-veh)/(AUCnontol […]

IC50 (cGMP-PDE V [1]) [nM] | inhibition at 10 µM (cGMP-PDE V [1]) [%] | inhibition at 1 µM (cGMP-PDE V [3]) [%] | Compound | further results
89 | – | – | CCn1ncc2c(NCc3ccc(OC)cc3)c3ccccc3nc21 [Example 3, 1-ethyl-N-(4-methoxyphenylmethyl)-1H-pyrazolo[3,4-b]quinolin-4-amine·HCl·1/2H2 O] | –
– | 85 | 50 | CCn1ncc2c(NCc3ccccc3)c3ccc(O)cc3nc21 [Example 6, 1-ethyl-7-hydroxy-N-(phenylmethyl)-1H-pyrazolo[3,4-b]quinolin-4-amine] | inhibition at 0.1 µM (cGMP-PDE V [3]): 17%
180 | – | – | CCn1ncc2c(NCc3ccc(OC)c(OC)c3)c3ccccc3nc21 [Example 7, 1-ethyl-N-(3,4-dimethoxyphenylmethyl)-1H-pyrazolo[3,4-b]quinolin-4-amine] | –
– | 50 | 5 | CCn1ncc2c(NCc3ccncc3)c3ccccc3nc21 [Example 8, 1-ethyl-N-(4-pyridinylmethyl)-1H-pyrazolo[3,4-b]quinolin-4-amine] | inhibition at 0.1 µM (cGMP-PDE V [3]): 0%
– | 57 | 0 | CCn1ncc2c(NCc3ccc(C#N)cc3)c3ccccc3nc21 [Example 10, 1-ethyl-N-(4-cyanophenylmethyl)-1H-pyrazolo[3,4-b]quinolin-4-amine] | –
450 | – | – | CCn1ncc2c(NCc3cccc(OC)c3)c3ccccc3nc21 [Example 11, 1-ethyl-N-(3-methoxyphenylmethyl)-1H-pyrazolo[3,4-b]quinolin-4-amine] | –
1140 | – | – | Cc1nn(C)c2nc3ccccc3c(NCc3ccccc3)c12 [Example 12(c), 1,3-dimethyl-N-(phenylmethyl)-1H-pyrazolo[3,4-b]quinolin-4-amine] | –
150 | – | – | CCn1ncc2c(NCc3cccc(O)c3)c3ccccc3nc21 [Example 13, 1-ethyl-N-(3-hydroxyphenylmethyl)-1H-pyrazolo [3,4-b]quinolin-4-amine] | –
86 | – | – | CCn1ncc2c(NCc3cccc(O)c3)c3ccccc3nc21 [Example 14, 1-ethyl-N-(3-hydroxyphenylmethyl)-1H-pyrazolo[3,4-b]quinolin-4-amine·2 CH3 SO3 H] | –
– | 75 | 43 | CCn1ncc2c(NCc3cccnc3)c3ccccc3nc21 [Example 19, 1-ethyl-N-(3-pyridinylmethyl)-1H-pyrazolo[3,4-b]quinolin-4-amine ·2CH3 SO3 H] | inhibition at 0.1 µM (cGMP-PDE V [3]): 10%
1260 | – | – | CCn1ncc2c(N(C)Cc3ccccc3)c3ccccc3nc21 [Example 20, 1-ethyl-N-(methyl)-N-(phenylmethyl)-1H-pyrazolo[3,4-b]quinolin-4-amine·CH3 SO3 H] | –
– | 97 | 58 | CCn1ncc2c(NCc3ccccn3)c3ccccc3nc21 [Example 21, 1-ethyl-N-(2-pyridinylmethyl)-1H-pyrazolo[3,4-b]quinolin-4-amine-2CH3SO3 H] | inhibition at 0.1 µM (cGMP-PDE V [3]): 27%
– | 94 | 75 | CCn1ncc2c(NC3CCc4ccccc43)c3ccccc3nc21 (stereo not shown) [Example 22, 1-ethyl-N-(1-indanyl)-1H-pyrazolo[3,4-b]quinolin-4-amine·CH3 SO3 H] | inhibition at 0.1 µM (cGMP-PDE V [3]): 34%
120 | – | – | CCn1ncc2c(NCc3ccc(O)cc3)c3cc(O)ccc3nc21 [Example 24, 1-ethyl-6-hydroxy-N-(4-hydroxyphenylmethyl)-1H-pyrazolo[3,4-b]quinolin-4-amine-CH3 SO3 H] | SHR iv % change in mean arterial pressure ([2]; 1 mg/kg iv): -10%; SHR iv % change in mean arterial pressure ([2]; 3 mg/kg iv): -9%; SHR iv % change in mean arterial pressure ([2]; 10 mg/kg iv): -15%

Continued, compound first:

Compound | IC50 (cGMP-PDE V [1]) [nM] | inhibition at 10 µM (cGMP-PDE V [1]) [%] | inhibition at 1 µM (cGMP-PDE V [3]) [%] | further results
CCn1ncc2c(NCc3ccccc3)c3ccccc3nc21 [1(a), 1-ethyl-N-(phenylmethyl)-1H-pyrazolo[3,4-b]quinolin-4-amine] | 210 | – | – | ED25 [2]: 25 mg/kg
CCn1ncc2c(NCCc3ccccc3)c3ccccc3nc21 [2(c), 1-ethyl-N-(phenylethyl)-1H-pyrazolo[3,4-b]quinoline-4 amine] | 4200 | – | – | ED25 [2]: 16.5 mg/kg
CC(C)n1ncc2c(NCc3ccccc3)c3ccccc3nc21 [4(c), 1-isopropyl-N-(phenylmethyl)-1H-pyrazolo[3,4-b]quinolin-4-amine] | 180 | – | – | –
CCn1ncc2c(NCc3ccccc3)c3ccc(OC)cc3nc21 [5(e), 1-ethyl-7-methoxy-N-(phenylmethyl)-1H-pyrazolo[3,4-b]quinolin-4-amine] | – | 85 | 54 | inhibition at 0.1 µM (cGMP-PDE V [3]): 14%
CCn1nc(C)c2c(NCc3ccccc3)c3ccccc3nc21 [9(d), 1-ethyl-3-methyl-N-(phenylmethyl)-1H-pyrazolo[3,4-b]quinolin-4-amine·HCl] | 170 | – | – | –
CCn1ncc2c(NCc3ccc(OCCN4CCOCC4)cc3)c3ccccc3nc21 [15(c), 1-ethyl-N-[4-[2-(4-morpholinyl)ethoxy]phenylmethyl]-1H-pyrazolo[3,4-b]quinolin-4-amine] | – | 34 | 20 | inhibition at 0.1 µM (cGMP-PDE V [3]): 0%
CCn1ncc2c(NCc3ccc(O)cc3)c3ccccc3nc21 [18(a), 1-ethyl-N-(4-hydroxyphenylmethyl)-1H-pyrazolo[3,4-b]quinolin-4-amine CH3 SO3 H] | 91 | – | – | –
CCn1ncc2c(NCc3ccc(O)cc3)c3ccccc3nc21 [18(b), 1-ethyl-N-(4-hydroxyphenylmethyl)-1H-pyrazolo[3,4-b]quinolin-4-amine] | – | 78 | 82 | inhibition at 0.1 µM (cGMP-PDE V [3]): 63%
CCn1ncc2c(NCc3ccc(OC)cc3)c3cc(OC)ccc3nc21 [23(c), 1-ethyl-6-methoxy-N-(4-methoxyphenylmethyl)-1H-pyrazolo[3,4-b]quinolin-4-amine·CH3 SO3 H] | 14 | – | – | SHR iv % change in mean arterial pressure ([2]; 1 mg/kg iv): -7%; SHR iv % change in mean arterial pressure ([2]; 3 mg/kg iv): -4%
CCn1ncc2c(NCc3ccco3)c3ccccc3nc21 [Example 16, 1-ethyl-N-(2-furanylmethyl)-1H-pyrazolo[3,4-b]quinolin-4-amine] | – | – | – | SHR iv % change in mean arterial pressure ([2]; 10 mg/kg iv): -16%
Cc1nn(C)c2nc3ccccc3c(NCCCNC34CC5CC(CC(C5)C3)C4)c12 [N-(1,3-dimethyl-1H-pyrazolo[3,4-b]quinolin-4-yl)-N'-tricyclo[3.3.1.1^3,7]dec-1-yl-1,3-propane diamine] | – | – | – | activity in the interferon assay (interferon): inactive
Cc1nn(C)c2nc3ccccc3c(NCc3cccnc3)c12 [N-(3-pyridinylmethyl), N-(3-pyridinylmethyl)-1,3-dimethyl-1H-pyrazolo[3,4-b] quinolin-4-amine] | – | – | – | activity in the interferon assay (interferon): inactive
Cc1nn(C)c2nc3ccccc3c(NCc3ccccc3N(C)C)c12 [N-[[2-(dimethylamino)phenyl]methyl]-1,3-dimethyl-1H-pyrazolo[3,4-b] quinolin-4-amines] | – | – | – | activity in the interferon assay (interferon): inactive
Cc1nn(C)c2nc3ccccc3c(NC3CC3)c12 [N-cyclopropyl, N-cyclopropyl-1,3-dimethyl-1H-pyrazolo[3,4-b] quinolin-4-amine] | – | – | – | activity in the interferon assay (interferon): inactive
Cc1nn(C)c2nc3ccccc3c(NC34CC5CC(CC(C5)C3)C4)c12 [N-tricyclo[3.3.1.1^3,7]dec-1-yl, N-tricyclo[3.3.1.1^3,7]dec-1-yl-1,3-dimethyl-1H-pyrazolo[3,4-b] quinolin-4-amine] | – | – | – | activity in the interferon assay (interferon): inactive
O=[N+]([O-])OCC(CO[N+](=O)[O-])O[N+](=O)[O-] [nitroglycerin] | – | – | – | dose-dependent decrease in MAP ([4]; non-tolerant rats, nitroglycerin challenge 1-300 μg/kg iv): 10 to 40 mm Hg; hypotensive response to challenge doses of nitroglycerin ([4]; tolerant vehicle pretreated group, 1-300 μg/kg iv): significant reduction of the hypotensive response
